According to patent US20250057793A1, “BENZOIC ACID SALTS FOR TREATMENT OF NERVOUS SYSTEM INJURIES AND DISORDERS” (The United States Government as represented by the …, priority 2021, published 2025):

Key:
[1] = test system: TBI mice; assay: Synapse maturation markers (PSD-95, NR2A, GluR1) in brain of TBI mice; assay type: in vivo, mouse; settings: 21 days post-injury, 50 mg/kg/day oral gavage
Method: FIGS. 1lA-11H. Restoration of PSD-95, NR2A and GluR1 in the hippocampus of TBI mice by oral administration of GTB. […] Twenty-one days after CCI injury, brain sections were double-labeled for NeuN and PSD-95 (FIG. 11A, control; FIG. 111B, CCI; FIG. 11C, CCI+GTB; FIG. 11D, CCI+Vehicle). Results represent analysis of one section of each of six mice per group. […] FIG. 11E. Actin was run as a loading control. […] Data are expressed as mean+SD. Statistical analyses were performed with one way ANOVA.

[2] = test system: cuprizone-intoxicated mice; assay: Remyelination of corpus callosum in cuprizone-intoxicated mouse model of demyelination; assay type: in vivo; settings: cuprizone diet 5 weeks, then NaB 50 mg/kg body wt/d oral gavage 3 weeks
Method: FIGS. 16A-16C: Oral NaB stimulates the maturation of OPCs in vivo in the corpus callosum of cuprizone-intoxicated mice. C57/BL6 mice (8-10 week old; male) were fed cuprizone-containing diet (Envigo) for 5 weeks followed by treatment with NaB (50 mg/kg body wt/d) orally via gavage. FIG. 16A) After 3 weeks of treatment with NaB, corpus callosum sections were double-labeled for PLP and A2B5. Mean fluorescence intensity (MFI) of A2B5 (FIG. 16B) and PLP (FIG. 16C) were quantified from one section (two images per section) of each of 5 mice group. Results are mean+SEM of 5 mice per group. ***p<0.001; **p<0.01.
FIGS. 17A-17H: Effect of NaB on myelination in vivo in the corpus callosum of cuprizone-intoxicated mice. C57/BL6 mice (8-10 week old; male; n=5) were fed cuprizone-containing diet (Envigo) for 5 weeks followed by treatment with NaB (50 mg/kg body wt/d) orally via gavage. After 3 weeks of treatment with NaB, corpus callosum sections were immunostained MBP (FIG. 17A) and PLP (FIG. 17B). Mean fluorescence intensity (MFI) of MBP (FIG. 17C) and PLP (FIG. 17D) were quantified from one section (two images per section) of each of 5 mice group. Results are mean+SEM of 5 mice per group. **p<0.01; *p<0.05. FIG. 17E) Corpus callosum sections were stained for luxol fast blue (LFB). FIG. 17F) For electron microscopic studies, 50 μm thick sagittal sections were prepared and stained followed by analysis of corpus callosum sections for different parameters to evaluate axonal ultrastructures. FIG. 17G) G score was calculated in 75 axons per group for all three groups. FIG. 17H) Percentage of myelinated axons was calculated in 7 randomly selected corpus callosum sections of 5 mice per group. ***p<0.001.

[3] = mice treated with cinnamon orally; cited from earlier work

O=C(OCC(COC(=O)c1ccccc1)OC(=O)c1ccccc1)c1ccccc1 [GTB, Glyceryl Tribenzoate]
level of PSD-95 ([1]; brain (cortex, hippocampus)): upregulated
level of GluR1 ([1]; hippocampus): increased
level of NR2A ([1]; hippocampus): increased

O=C([O-])c1ccccc1.[Na+] [NaB, Sodium benzoate]
MBP in corpus callosum [2]: increased
level of A2B5 in corpus callosum [2]: decreased
level of PLP in corpus callosum [2]: increased
maturation of OPCs in vivo in the corpus callosum [2]: stimulates
remyelination in the corpus callosum [2]: can promote remyelination
presence of NaB in the brain [3]: detected in the brain
